Consider twelve compounds from patent EP4678638A1, “NEW E3 UBIQUITIN LIGASE LIGAND, PROTEIN DEGRADATION AGENT AND USE THEREOF” (priority 2023, dated 2024).

Experiment [1] relates to SW620. In words: CCK-8 proliferation, SW620. In kind it is cell-based. The note with it: Homo sapiens, SW-620; CCK-8; 96 hours; read-out: Inhibitory activity (IC50) on tumor cell proliferation, SW620. The procedure: (§1) The tumor cells used herein were cultured in a cell culture medium listed in table A1 at 37°C in an incubator with 5% CO2. Prior to experimentation, all cell lines used were correctly identified by STR profiling, and tested negative for mycoplasma contamination using a mycoplasma detection kit through routine screenings. Table A1. Tumor cells and cell culture medium used in the present disclosure
(§2) IC50 values of the compounds of the present disclosure (including the compounds in Table 1, and compounds of examples) were measured using the Meilun Cell Counting Kit-8 kit from Dalian Meilun Biotech Co., Ltd. Assay details are as follows: tumor cells were seeded in a 96-well plate at a density listed in Table A2. After 24h, 100 µL of the inoculated cells were treated with 0.5µL of the compounds of the present disclosure (including the compounds in Tables 1 and 2, and compounds of examples) at 10 different successively decreasing concentrations (starting at the highest concentration of 10µM; 5-fold serial dilutions). After the cells were treated with the compounds of the present disclosure for a period of time, the cell viability detection reagent was added to the culture medium for cell viability assessment according to the instructions provided with the CCK-8 kit. […] The growth inhibition of the compounds of the present disclosure on cells was plotted by Prism Graphpad software, and the IC50 values of the compounds of the present disclosure were calculated therefrom. […] Seeding protocol and treatment time for tumor cells

Experiment [2] concerns MGC-803. Kind of experiment: CCK-8 proliferation, MGC-803 (heads: MGC80-3, MGC803). The note with it: Homo sapiens, MGC-803; for IC50: Table B10, compounds designed based on the IRAK4 inhibitors, MGC803 cells, read-out: Inhibitory activity (IC50, nM) on tumor cell proliferation, MGC803. In kind it is cell-based, Human. As for the experimental part: as §1, §2
Experiment [3] addresses T1, IRAK4 (Homo sapiens, UniProt Q9NWZ3).
T1 construct: evaluate the effects of the compounds of the present disclosure on the expression of target proteins in cells; endogenous in cells; host or cells: hPBMC
T1 sequence (Q9NWZ3 1-460): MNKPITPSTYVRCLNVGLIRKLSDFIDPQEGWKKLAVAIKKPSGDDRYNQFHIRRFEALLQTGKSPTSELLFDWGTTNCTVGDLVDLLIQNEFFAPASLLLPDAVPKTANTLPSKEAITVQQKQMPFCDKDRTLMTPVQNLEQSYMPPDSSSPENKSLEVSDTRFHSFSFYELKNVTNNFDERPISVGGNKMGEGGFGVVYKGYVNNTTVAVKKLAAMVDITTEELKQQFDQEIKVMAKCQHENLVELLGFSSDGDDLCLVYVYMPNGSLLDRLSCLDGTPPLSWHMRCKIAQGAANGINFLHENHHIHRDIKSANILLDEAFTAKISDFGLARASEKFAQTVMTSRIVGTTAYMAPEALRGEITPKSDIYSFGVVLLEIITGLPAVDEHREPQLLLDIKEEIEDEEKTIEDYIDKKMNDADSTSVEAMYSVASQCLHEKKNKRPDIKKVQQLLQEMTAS
Kind of experiment: Western blot degradation of IRAK4 (hPBMC). The note with it: Table D1. It is filed as cell-based. A digest of the protocol: (§3)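 Degradation is assessed by immunoblotting lysates of treated cells. Target bands are quantified by grayscale and normalised to an internal control, so degradation rate equals 100% minus % remaining.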
A general note: A western blot detects proteins with antibodies after separation by electrophoresis.

Experiment [4] has as its system Jurkat. In words: CCK-8 proliferation, Jurkat. In kind it is cell-based, Human. The conditions noted are these: Homo sapiens; Table B10, compounds designed based on the IRAK4 inhibitors; Jurkat cells; read-out: Inhibitory activity (IC50, nM) on tumor cell proliferation, Jurkat. Put shortly:
(§4)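 CCK-8 viability readout; IC50 from growth-inhibition curve fitting. Cells plated, dosed 24h later with a 10-point series, top 10µM, 5-fold steps. Culture at 37°C, 5% CO2.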

Experiment [5] relates to MM.1S. In words: CCK-8 proliferation, MM.1S. In kind it is cell-based. The note with it: Homo sapiens, MM1.S; Table B10, compounds designed based on the IRAK4 inhibitors; MM.1S cells; read-out: Inhibitory activity (IC50, nM) on tumor cell proliferation, MM.1S. A digest of the protocol: as §4
For experiment [6], the system named is SR. In words: CCK-8 proliferation, SR. In kind it is cell-based, Human. The note with it: Homo sapiens; Table B10, compounds designed based on the IRAK4 inhibitors; SR cells; read-out: Inhibitory activity (IC50, nM) on tumor cell proliferation, SR. Put shortly:
as §4

The subject of experiment [7] is HCC827. Kind of experiment: CCK-8 proliferation, HCC827. In kind it is cell-based, Human. The note with it: Homo sapiens, HCC827; CCK-8; 96 hours; read-out: Inhibitory activity (IC50) on tumor cell proliferation, HCC827. As for the experimental part:
as §1, §2

The test system of experiment [8] is PC-9. Kind of experiment: CCK-8 proliferation, PC-9. In kind it is cell-based, Human. The note with it: Homo sapiens, PC-9; CCK-8; 96 hours; read-out: Inhibitory activity (IC50) on tumor cell proliferation, PC-9. Put shortly:
as §4

The test system of experiment [9] is EGFR. In words: Western blot degradation of EGFR (H1975 Cell). In kind it is cell-based, Human. The note with it: Table D2. A digest of the protocol: as §3
Experiment [10] has as its system H1975. Kind of experiment: CCK-8 proliferation, NCI-H1975 (H1975). It is filed as cell-based, Human. The note with it: Homo sapiens, NCI-H1975; CCK-8; 96 hours; read-out: Inhibitory activity (IC50) on tumor cell proliferation, H1975. Put shortly:
as §4

For experiment [11], the system named is H1975-1µM Osimertinib cells. In words: CCK-8 proliferation, osimertinib-resistant H1975 cells. It is filed as cell-based, Human. The note with it: Homo sapiens, NCI-H1975; CCK-8; osimertinib-resistant H1975 cells obtained by treating H1975 cells with 1 µM Osimertinib for 3 months; read-out: Inhibitory activity (IC50) on tumor cell proliferation, H1975-1µm Osimertinib. The procedure: as §1, §2

pIC50: −log10 of the molar value. Where two headings read alike, the source gives them in different places.

For `CCC(=C(c1ccc(O)cc1)c1ccc(N2CCN(Cc3ccc(C4CCC(=O)NC4=O)c(F)c3)CC2)cc1)c1ccc(O)cc1` (stereo not drawn) [GT-04150, 3-(4-((4-(4-(1,2-bis(4-hydroxyphenyl)but-1-en-1-yl)phenyl)piperazin-1-yl)methyl)-2-fluorophenyl)piperidine-2,6-dione], the pIC50 is over 9.00 in experiment [1] and under 5.00 in [2] (CCK-8, 72 hours, read-out: Inhibitory activity (IC50) on tumor cell proliferation, MGC80-3).

`COc1cc2nn(C3CCN(Cc4ccc(C5CCC(=O)NC5=O)c(F)c4)CC3)cc2cc1NC(=O)c1cccc(C(F)(F)F)n1` (stereo not drawn) [GT-04762, N-(2-(1-(4-(2,6-dioxopiperidin-3-yl)-3-fluorobenzyl)piperidin-4-yl)-6-methoxy-2H-indazol-5-yl)-6-(trifluoromethyl)picolinamide]: in experiment [3], the “Degradation of substrate protein IRAK4 (substrate protein remaining %)” value is reported as “A (A is defined as 0% ≤ substrate protein remaining % ≤ 80%)”. In addition, the IC50 in experiment [2] is 500 to 1000 nM.

As for `O=C1CCN(c2ccc(CN3CCC(N4CCN(c5ccc6c(c5)nc(NC(=O)c5cccc(C(F)(F)F)c5)n6[C@H]5CC[C@@H](CO)CC5)CC4)CC3)cc2)C(=O)N1` [GT-05021, N-(5-(4-(1-(4-(2,4-dioxotetrahydropyrimidin-1(2H)-yl)benzyl)piperidin-4-yl)piperazin-1-yl)-1-((1s,4s)-4-(hydroxymethyl)cyclohexyl) -1H-benzo[d]imidazol-2-yl)-3-(trifluoromethyl)benzamide], the IC50 in experiment [2], in experiment [4] and in experiment [5] was 500 to 1000 nM throughout.

In the case of `O=C1CCN(c2cccc(CN3CCC(N4CCN(c5ccc6c(c5)nc(NC(=O)c5cccc(C(F)(F)F)c5)n6[C@H]5CC[C@@H](CO)CC5)CC4)CC3)c2)C(=O)N1` [GT-05022, N-(5-(4-(1-(3-(2,4-dioxotetrahydropyrimidin-1(2H)-yl)benzyl)piperidin-4-yl)piperazin-1-yl)-1-((1s,4s)-4-(hydroxymethyl)cyclohexyl) -1H-benzo[d]imidazol-2-yl)-3-(trifluoromethyl)benzamide], in experiment [3], the “Degradation of substrate protein IRAK4 (substrate protein remaining %)” value is on record as “A (A is defined as 0% ≤ substrate protein remaining % ≤ 80%)”. In addition, the IC50 in experiment [6], in experiment [2], in experiment [4] and in experiment [5] was 500 to 1000 nM throughout.

`O=C1CCN(c2ccc(CN3CCC(N4CCN(c5ccc6c(c5)nc(NC(=O)c5cccc(C(F)(F)F)c5)n6[C@H]5CC[C@@H](CO)CC5)CC4)CC3)nc2)C(=O)N1` [GT-05024, N-(5-(4-(1-((5-(2,4-dioxotetrahydropyrimidin-1(2H)-yl)pyridin-2-yl)methyl)piperidin-4-yl)piperazin-1-yl)-1-((1s,4s)-4-(hydroxymethyl)cyclohexyl) -1H-benzo[d]imidazol-2-yl)-3-(trifluoromethyl)benzamide]: the IC50 in [6], in experiment [2], in experiment [4] and in [5] was 500 to 1000 nM in each case.

Turning to `O=C1CCN(c2ccc(CN3CCN(c4ccc(Nc5ncc6nc(Nc7ccccc7)n(C7CCCC7)c6n5)cc4)CC3)nc2)C(=O)N1` [GT-05839, 1-(6-((4-(4-((9-cyclopentyl-8-(phenylamino)-9H-purin-2-yl)amino)phenyl)piperazin-1-yl)methyl)pyridin-3-yl)dihydropyrimidine-2,4(1H,3H)-dione], the pIC50 in [7] was 7.30 to 8.00; in experiment [8], 8.00 to 9.00; in experiment [10] it was 6.30 to 7.00. The “Degradation of substrate protein EGFR (substrate protein remaining %)” value in [9] is “A (A is defined as 0% ≤ substrate protein remaining % ≤ 80%)”.

For `O=C1CCN(c2ccc(CN3CCN(c4ccc(Nc5ncc6nc(Nc7ccccc7)n(C7CCCC7)c6n5)cc4)CC3)cn2)C(=O)N1` [GT-05840, 1-(5-((4-(4-((9-cyclopentyl-8-(phenylamino)-9H-purin-2-yl)amino)phenyl)piperazin-1-yl)methyl)pyridin-2-yl)dihydropyrimidine-2,4(1H,3H)-dione], the results for the pIC50 in [7], in [8] and in experiment [10] were 7.30 to 8.00, 8.00 to 9.00 and 6.30 to 7.00, respectively. In addition, in [9], the “Degradation of substrate protein EGFR (substrate protein remaining %)” value is reported as “A (A is defined as 0% ≤ substrate protein remaining % ≤ 80%)”.

Consider `CN(Cc1cccc(N2CCC(=O)NC2=O)c1)C1CCN(c2ccc(Nc3ncc4nc(Nc5ccccc5)n(C5CCCC5)c4n3)cc2)CC1` [GT-05870, 1-(3-(((1-(4-((9-cyclopentyl-8-(phenylamino)-9H-purin-2-yl)amino)phenyl)piperidin-4-yl)(methyl)amino)methyl)phenyl)dihydropyrimidine-2,4(1H,3H)-dione], for which the values for the pIC50 in experiment [7], in experiment [8] and in experiment [10] were 7.30 to 8.00, 8.00 to 9.00 and 6.30 to 7.00, respectively. In addition, in [9], the “Degradation of substrate protein EGFR (substrate protein remaining %)” value was “A (A is defined as 0% ≤ substrate protein remaining % ≤ 80%)”.

As for `O=C1CCN(c2cccc(CN3CCN(C4CCN(c5ccc(Nc6ncc7nc(Nc8ccccc8)n(C8CCCC8)c7n6)cc5)CC4)CC3)c2)C(=O)N1` [GT-05940, 1-(3-((4-(1-(4-((9-cyclopentyl-8-(phenylamino)-9H-purin-2-yl)amino)phenyl)piperidin-4-yl)piperazin-1-yl)methyl)phenyl)dihydropyrimidine-2,4(1H,3H)-dione], the results for the pIC50 in [7], in [8] and in experiment [10] were 8.00 to 9.00, 8.00 to 9.00 and 6.30 to 7.00, respectively. Also, the “Degradation of substrate protein EGFR (substrate protein remaining %)” value in experiment [9] is on record as “A (A is defined as 0% ≤ substrate protein remaining % ≤ 80%)”.

Consider `O=C1CCN(c2ccc(CN3CCN(C4CCN(c5ccc(Nc6ncc7nc(Nc8ccccc8)n(C8CCCC8)c7n6)cc5)CC4)CC3)nc2)C(=O)N1` [GT-05941, 1-(6-((4-(1-(4-((9-cyclopentyl-8-(phenylamino)-9H-purin-2-yl)amino)phenyl)piperidin-4-yl)piperazin-1-yl)methyl)pyridin-3-yl)dihydropyrimidine-2,4(1H,3H)-dione], for which the values for the pIC50 in [7], in experiment [8] and in experiment [10] were 7.30 to 8.00, 8.00 to 9.00 and 6.30 to 7.00, respectively. Besides, the “Degradation of substrate protein EGFR (substrate protein remaining %)” value in experiment [9] was “A (A is defined as 0% ≤ substrate protein remaining % ≤ 80%)”.

As for `COC1CCN(c2nccc(Nc3cc4c(cn3)c(N3CCN(Cc5ccc(N6CCC(=O)NC6=O)cc5)CC3)nn4C(C)C)n2)CC1` [GT-06037, 1-(4-((4-(1-isopropyl-6-((2-(4-methoxypiperidin-1-yl)pyrimidin-4-yl)amino)-1H-pyrazolo[4,3-c]pyridin-3-yl)piperazin-1-yl)methyl)phenyl)dihydropyr imidine-2,4(1H,3H)-dione], in [11], the pIC50 is 8.00 to 9.00.

Turning to `Cc1cc(-c2nc(C(=O)Nc3cc4oc(N5CCOCC5)nc4nc3N3CC[C@@H](O)C3)co2)ccn1` [emavusertib, reference compound], the IC50 in [2] and in experiment [5] was over 10000 nM throughout.
